Laboratory results from ChEMBL document CHEMBL1201862, “PubChem BioAssay data set” (2004).
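Tested at 5 concentrations; 48 h exposure; 96-well plates; endpoints linearly interpolated, else capped at highest concentration. GI50: concentration for 50% inhibition of growth.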 The source made the active and inactive calls. Rule as the data show it: active = GI50 up to about 1.1 µM and inactive = higher.

Assays:
Test in all cases: DTP human tumour cell line panel, 48 h
[1] = system: ACHN
[2] = system: EKVX
[3] = system: HCT-116
[4] = system: HOP-62
[5] = system: K562
[6] = system: NCI-H460
[7] = system: NCI-H522
[8] = system: OVCAR-8
[9] = system: RPMI-8226
[10] = system: SK-MEL-2
[11] = system: SK-OV-3
[12] = system: SN12C
[13] = system: SNB-75
[14] = system: TK-10
[15] = system: U-251
[16] = system: UACC-257
[17] = system: UACC-62

**Q.** Which results are given for `CC(=O)Nc1ccc(-c2nnc(SCC(=O)Nc3ccc(Cl)cc3)o2)cc1`?
**A.** GI50 [1]: 12.7 µM (inactive); GI50 [2]: 21 µM (inactive); GI50 [3]: 7.74 µM (inactive); GI50 [4]: 22.4 µM (inactive); GI50 [5]: 5.83 µM (inactive); GI50 [6]: 10 µM (inactive); GI50 [7]: 2.34 µM (inactive); GI50 [8]: 12.5 µM (inactive); GI50 [9]: 6.89 µM (inactive); GI50 [10]: 17.5 µM (inactive); GI50 [11]: 16.4 µM (inactive); GI50 [12]: 10.4 µM (inactive); GI50 [13]: 21.5 µM (inactive); GI50 [14]: 18.4 µM (inactive); GI50 [15]: 3.38 µM (inactive); GI50 [16]: 16.4 µM (inactive); GI50 [17]: 4.89 µM (inactive)

**Q.** For `CC(=O)O[C@H]1CC[C@@]2(C)C(=CC[C@@H]3C2CC[C@]2(C)Nc4nc5ccccc5cc4CC32)C1` (some centres not stated), which GI50 [1] is on record?
**A.** 4.72 µM (inactive)

**Q.** And the GI50 [2]?
**A.** 5.74 µM (inactive)

**Q.** What about the GI50 [3] of the same compound?
**A.** 1.86 µM (inactive)

**Q.** What about the GI50 [4] of the same compound?
**A.** 13.3 µM (inactive)

**Q.** And the GI50 [5]?
**A.** 3.21 µM (inactive)

**Q.** What about the GI50 [6] of the same compound?
**A.** 4.57 µM (inactive)

**Q.** What about the GI50 [7] of the same compound?
**A.** 11.4 µM (inactive)

**Q.** And the GI50 [8]?
**A.** 3.13 µM (inactive)

**Q.** And the GI50 [9]?
**A.** 8.65 µM (inactive)

**Q.** And the GI50 [10]?
**A.** 17 µM (inactive)

**Q.** And the GI50 [11]?
**A.** 2.82 µM (inactive)

**Q.** What about the GI50 [12] of the same compound?
**A.** 7.1 µM (inactive)

**Q.** What about the GI50 [13] of the same compound?
**A.** 2.65 µM (inactive)

**Q.** What about the GI50 [14] of the same compound?
**A.** 5.31 µM (inactive)

**Q.** What about the GI50 [15] of the same compound?
**A.** 2.67 µM (inactive)

**Q.** And the GI50 [16]?
**A.** 3.66 µM (inactive)

**Q.** And the GI50 [17]?
**A.** 10.8 µM (inactive)

**Q.** `CN(C)CCONC(=O)C12CC3CC(CC(C3)C1)C2` was tested. Which GI50 [1] did it give?
**A.** > 100 µM (inactive)

**Q.** What about the GI50 [2] of the same compound?
**A.** > 100 µM (inactive)

**Q.** What about the GI50 [3] of the same compound?
**A.** > 100 µM (inactive)

**Q.** And the GI50 [4]?
**A.** > 100 µM (inactive)

**Q.** And the GI50 [5]?
**A.** > 100 µM (inactive)

**Q.** What about the GI50 [6] of the same compound?
**A.** > 100 µM (inactive)

**Q.** What about the GI50 [7] of the same compound?
**A.** > 100 µM (inactive)

**Q.** And the GI50 [8]?
**A.** > 100 µM (inactive)

**Q.** What about the GI50 [9] of the same compound?
**A.** > 100 µM (inactive)

**Q.** What about the GI50 [10] of the same compound?
**A.** > 100 µM (inactive)

**Q.** What about the GI50 [11] of the same compound?
**A.** > 100 µM (inactive)

**Q.** What about the GI50 [12] of the same compound?
**A.** > 100 µM (inactive)

**Q.** And the GI50 [13]?
**A.** > 100 µM (inactive)

**Q.** And the GI50 [14]?
**A.** > 100 µM (inactive)

**Q.** What about the GI50 [15] of the same compound?
**A.** > 100 µM (inactive)

**Q.** What about the GI50 [16] of the same compound?
**A.** > 100 µM (inactive)

**Q.** And the GI50 [17]?
**A.** > 100 µM (inactive)

**Q.** Which GI50 [1] does the source give for `CN1C(OCc2ccccc2)c2c(ccc3c2OCO3)C2C=Cc3cc4c(cc3C21)OCO4` (configuration not stated) here?
**A.** 1.51 µM (inactive)

**Q.** What about the GI50 [2] of the same compound?
**A.** 1.62 µM (inactive)

**Q.** And the GI50 [3]?
**A.** 0.398 µM (active)

**Q.** What about the GI50 [4] of the same compound?
**A.** 1.58 µM (inactive)

**Q.** And the GI50 [5]?
**A.** 0.611 µM (active)

**Q.** And the GI50 [6]?
**A.** 1.48 µM (inactive)

**Q.** What about the GI50 [7] of the same compound?
**A.** 0.989 µM (active)

**Q.** And the GI50 [8]?
**A.** 0.319 µM (active)

**Q.** And the GI50 [9]?
**A.** 0.221 µM (active)

**Q.** And the GI50 [10]?
**A.** 1.55 µM (inactive)

**Q.** And the GI50 [11]?
**A.** 1.22 µM (inactive)

**Q.** And the GI50 [12]?
**A.** 1.32 µM (inactive)

**Q.** And the GI50 [13]?
**A.** 1.4 µM (inactive)

**Q.** What about the GI50 [14] of the same compound?
**A.** 1.89 µM (inactive)

**Q.** What about the GI50 [15] of the same compound?
**A.** 1.51 µM (inactive)

**Q.** And the GI50 [16]?
**A.** 1.37 µM (inactive)

**Q.** And the GI50 [17]?
**A.** 1.2 µM (inactive)

**Q.** Which results are given for `COC(=O)CCC(NC(=S)N/N=C(\C)c1ccccn1)C(=O)OC` (configuration not stated)?
**A.** GI50 [1]: 28.5 µM (inactive); GI50 [2]: 43.6 µM (inactive); GI50 [3]: 60.8 µM (inactive); GI50 [4]: 57.3 µM (inactive); GI50 [5]: 53.7 µM (inactive); GI50 [6]: 65.8 µM (inactive); GI50 [7]: 33.3 µM (inactive); GI50 [8]: 66.8 µM (inactive); GI50 [9]: 44.4 µM (inactive); GI50 [10]: > 100 µM (inactive); GI50 [11]: > 100 µM (inactive); GI50 [12]: 89.1 µM (inactive); GI50 [13]: > 100 µM (inactive); GI50 [14]: > 100 µM (inactive); GI50 [15]: 53.2 µM (inactive); GI50 [16]: 97.5 µM (inactive); GI50 [17]: 34.8 µM (inactive)

**Q.** `C/C(=C\c1ccccc1)C(O)S(=O)(=O)O` (configuration not stated) was tested. Which GI50 [1] did it give?
**A.** > 100 µM (inactive)

**Q.** What about the GI50 [2] of the same compound?
**A.** > 100 µM (inactive)

**Q.** And the GI50 [3]?
**A.** > 100 µM (inactive)

**Q.** And the GI50 [4]?
**A.** > 100 µM (inactive)

**Q.** What about the GI50 [5] of the same compound?
**A.** > 100 µM (inactive)

**Q.** And the GI50 [6]?
**A.** > 100 µM (inactive)

**Q.** What about the GI50 [7] of the same compound?
**A.** > 100 µM (inactive)

**Q.** What about the GI50 [8] of the same compound?
**A.** > 100 µM (inactive)

**Q.** What about the GI50 [9] of the same compound?
**A.** > 100 µM (inactive)

**Q.** What about the GI50 [10] of the same compound?
**A.** > 100 µM (inactive)

**Q.** What about the GI50 [11] of the same compound?
**A.** > 100 µM (inactive)

**Q.** And the GI50 [12]?
**A.** > 100 µM (inactive)

**Q.** And the GI50 [13]?
**A.** > 100 µM (inactive)

**Q.** What about the GI50 [14] of the same compound?
**A.** > 100 µM (inactive)

**Q.** And the GI50 [15]?
**A.** > 100 µM (inactive)

**Q.** And the GI50 [16]?
**A.** > 100 µM (inactive)

**Q.** What about the GI50 [17] of the same compound?
**A.** > 100 µM (inactive)
